From patent US20130133650A1, “GAS-BASED TREATMENT FOR INFECTIVE DISEASE” (priority 2010, published 2013)

Tests used:
Mycobacterium bovis BCG = settings: cited from earlier work
[1] = system: THP-1 macrophage-like cells; assay: Viability of human macrophage-like cells following anaerobic shock (trypan blue exclusion); assay type: cell-based; settings: uninfected differentiated THP-1 cells, various treatment times (FIG. 3(B))
Description: THP-1 cells were grown and induced for differentiation as above. The monolayer of differentiated macrophage-like cells was dispersed by trypsinization, after which cell suspensions were transferred to Vacutainer tubes and shocked with anaerobic gas as described for bacterial cultures. At various times, 20-microliter aliquots of suspended cells (˜10^6 cells/ml) were mixed with an equal volume of Trypan Blue staining solution (0.4% Trypan blue, Sigma Chemicals CO., St. Louis, Mo.)). Total and blue cell numbers were determined by light microscopy using a hemocytometer.
Percent of white (live) cells was plotted relative to an untreated sample.

[2] = system: M. tuberculosis H37Rv inside THP-1 macrophage-like cells; assay: Anaerobic shock of macrophage-like cells infected with M. tuberculosis, bacterial survival; settings: treatment for the indicated times (FIG. 3(A))
[3] = rabbit, in vivo
M. bovis BCG = assay type: cell-based, Mycobacterium bovis BCG; settings: jar flushed with gas, 1-24 hour (FIG. 5)

NCCN(CCN)/[N+]([O-])=N/O [DETA-NO, diethylene-triamine-nitric oxide adduct]
effect of pretreatment on anaerobic shock-caused cell death (Mycobacterium bovis BCG; pretreatment before anaerobic shock): not blocked
duration of sustained growth arrest (Mycobacterium bovis BCG; single treatment): 72 h

[Ar] [argon]
macrophage viability (trypan blue exclusion) [1]: slightly reduced viability at long treatment times
intracellular bacillary viability [2]: only reduced bacillary viability moderately
side-effect of one-lung anaerobic shock [3]: no obvious side-effect

[HH] [hydrogen]
killing of bacteria on agar surface (M. bovis BCG): killed
